Molecular target: Protein cereblon (Homo sapiens, UniProt Q96SW2)
Assay: Cereblon (CRBN) Target Engagement
Protocol: Cereblon target engagement was monitored by Bioluminescence Resonance Energy Transfer (BRET) in transfected HEK-293T cells using the NanoBRET TE Intracellular E3 Ligase Assay (Promega). Briefly, 384-well plates (white opaque plates, Corning 3574, low binding surface) were seeded with transfected HEK-293T cells (38 uL/well). 2 uL of 10 uM CRBN tracer (diluted 1:5 in Tracer Dilution Buffer) was added to each well. Plates were centrifuged at 320 g for 1 min at room temperature. Test compounds were added in a 11-point dilution series (typically […]) using a TECAN D300e Digital Dispenser. Plates were shaken for 2 minutes on a microplate shaker to mix compounds. Plates were centrifuged at 320 g for 1 min at room temperature, and subsequently incubated for 2 hours at 37 C.After incubation, plates were allowed to cool to room temperature for 15 minutes. 20 uL of 3 Complete NanoBRET Nano-Glo Substrate plus Inhibitor Solution (Promega, 1:166 Substrate and 1:500 dilution of Extracellular NanoLuc Inhibitor diluted in Opti-MEM) were added to each well. Plates were incubated with shaking at room temperature for 3 minutes covered with foil. Plates were read on a CLARIOstar microplate reader (BMG LabTech), measuring at 450 nm (donor emission) and 610 nm (acceptor emission). The IC50 values were determined by regression to best fit four-parameter logistic curves using GraphPad Prism.

Sequence of Protein cereblon (Q96SW2 whole entry): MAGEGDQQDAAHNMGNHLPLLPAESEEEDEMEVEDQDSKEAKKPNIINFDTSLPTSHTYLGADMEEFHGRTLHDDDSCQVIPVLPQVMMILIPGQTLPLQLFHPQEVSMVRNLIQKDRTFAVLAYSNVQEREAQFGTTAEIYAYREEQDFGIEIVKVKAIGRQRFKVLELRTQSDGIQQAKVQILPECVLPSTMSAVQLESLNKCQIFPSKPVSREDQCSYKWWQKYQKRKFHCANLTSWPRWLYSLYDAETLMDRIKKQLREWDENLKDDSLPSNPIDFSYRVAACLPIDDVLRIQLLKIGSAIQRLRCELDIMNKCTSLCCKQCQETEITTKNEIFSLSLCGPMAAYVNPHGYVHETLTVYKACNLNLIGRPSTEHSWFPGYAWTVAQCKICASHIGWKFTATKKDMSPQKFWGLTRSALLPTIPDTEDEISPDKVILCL

Compound	EC50 [nM]
O=C1NC(=O)C2(N3Cc4cc(O[C@H]5CCC[C@@H]5N5CC(c6cccc(F)c6)C5)ccc4C3=O)CC1C2 [US20240246935, Example 87]	> 10000
O=C1CCC(N2Cc3cc(O[C@H]4CCCC[C@@H]4N4CC(c5ccc(F)cc5Cl)C4)ccc3C2=O)C(=O)N1 (some centres not stated) [US20240246935, Example 103]	15
O=C1CCC(N2Cc3cc(O[C@H]4CCC[C@@H]4N4CC(c5ccc(F)cc5Cl)C4)ccc3C2=O)C(=O)N1 (some centres not stated) [US20240246935, Example 104]	18
O=C1NC(=O)C2(N3Cc4cc(O[C@H]5CCCC[C@@H]5N5CC(c6cccc(F)c6)C5)ccc4C3=O)CC1C2 [US20240246935, Example 89]	6810
O=C1CCC(N2Cc3cc(O[C@H]4CCC[C@@H]4N4CC(c5cccc(F)c5)C4)ccc3C2=O)C(=O)N1 (some centres not stated) [US20240246935, Example 88]	30.2
O=C1NC(=O)C2(N3Cc4cc(O[C@H]5CCC[C@@H]5N5CCC(c6ccccc6)C5)ccc4C3=O)CC1C2 (some centres not stated) [US20240246935, Example 107]	> 10000
O=C1NC(=O)C2(N3Cc4cc(O[C@H]5CCC[C@@H]5N5CC(c6ccc(F)cc6Cl)C5)ccc4C3=O)CC1C2 [US20240246935, Example 86]	> 10000

— BindingDB's records for patent US20240246935 (Plexium, Inc., 2024)
